Test results: US9389219B2, “Methods for screening inhibitors of tumor associated protein aggregation” (Vrije Universiteit Brussel, priority 2011, dated 2016)
Entries after “also recorded” stand apart in the source; their conditions may differ. Read-outs that look alike come from different tables or passages of the source. Where a SMILES comes first, the peptide text is derived from it. The star is where a group is joined. Cbz = O=C(OCc1ccccc1)*

How the values were obtained:
Type in all cases: cell-based, human
WT p53 in U2OS cells [1] = assay: Native page analysis of p53 in treated U2OS cells
mutant p53 = assay: BN-PAGE of p53 mutants over-expressed in SaOS-2 cells with MG-132; details: I254R double mutants
Experimental: SaOS-2 or Hela cells were rinsed with ice-cold 20 mM Tris-HCl, 150 mM NaCl, pH 7.4 (TBS) and lysed with 18 mM 3-[(3-cholamidopropyl) dimethylammonio]-1-propanesulfonic acid (CHAPS) in TBS with DNase and protease inhibitors for 30 minutes at 21° C. or on ice, respectively. Whole-cell lysate was fractionated by both SDS-PAGE (NuPAGE system, Invitrogen) and Blue-Native PAGE (NativePAGE system, Invitrogen) following the product manuals. For SDS-PAGE, sample was denatured at 95° C. for 10 minutes in the presence of 2% sodium dodecyl sulfate (SDS) and then fractionated by 10% Bis-Tris gels in MES-SDS running buffer (0.1% SDS, 50 mM MES, and 50 mM Tris-Base). For Blue-Native PAGE, cell lysate was added with 20% glycerol and 5 mM Coomassie G-250 before loading onto 3-12% Novex Bis-Tris gradient gels. […] After three times of rinsing with TBS containing 0.1% TWEEN® 20 (TBST), the membrane was stained with horseradish peroxidase (HRP)-conjugated goat anti-mouse IgG (Promega) and visualized with electrochemical luminescence (ECL) system. […]
In the degradation stability test, protein synthesis was blocked by 60 μg/mL cycloheximide 24 hours after transfection, and cells were lysed 0, 3, 6, 12, 24 and 48 hours after the addition of cycloheximide. […] Cells were analyzed by immunofluorescence after 24 hours.

WT p53 in U2OS cells [2] = assay: Western blot of p53 in U2OS cells treated with chemotherapeutic agents
WT p53 in U2OS cells [3] = assay: Immunofluorescent staining for p53 inclusions, InCell Analyzer 2000; details: >1000 cells/condition
Source text: It is becoming increasingly evident that resistance is also seen in cancers harboring wild-type p53, which might be explained by a change of conformation of wt p53 into a “mutant configuration.”^76 Cell lines harboring wt p53 were used and enhanced the expression using previously described chemotherapeutic agents. […] When performing immunofluorescent staining for p53 in U2OS cells, increased accumulation of non-soluble, inclusions of p53 in the cytoplasm was subsequently observed.

## CC(C)C[C@@H](C=O)NC(=O)[C@H](CC(C)C)NC(=O)[C@H](CC(C)C)NC(=O)OCc1ccccc1 [MG132] (Cbz-Leu-Leu-Leu-aldehyde)
WT p53 in U2OS cells [1]
  p53 high molecular-weight species (native page): smear was comparable
Mutant p53
  proteasomal degradation of mutant p53: inhibited proteasomal degradation of mutant p53

## N.N.[Cl][Pt][Cl] [cisplatin]
WT p53 in U2OS cells [1]
  p53 high molecular-weight species (native page): part of p53 ran as a high molecular weight smear; also recorded: high molecular-weight species of p53
WT p53 in U2OS cells [2]
  p53 expression level (Western blot): started to accumulate WT p53
WT p53 in U2OS cells [2]; listed as Cisplatin
  p53 expression level (Western blot): increased expression levels of p53
WT p53 in U2OS cells [3]
  increase in cytoplasmic aggregates of p53: greater than three-fold increase
